Data published in US20110319416A1, “Subunit Selective NMDA Receptor Antagonists For The Treatment Of Neurological Conditions” (EMORY UNIVERSITY, priority 2009, published 2011).
Where two headings read alike, the source gives them in different places.

Experiments:
[1] = target: NR1/NR2C (Rattus norvegicus, UniProt P35439+Q00961); experiment: Two electrode voltage clamp, Xenopus oocytes expressing recombinant NR1/NR2C; assay type: cell-based; conditions: for remaining activity at 100 µM: read-out: 2C percent effect at the maximum tested concentration
Chain of NR1/NR2C (Q00961 20-1237, other chains not shown): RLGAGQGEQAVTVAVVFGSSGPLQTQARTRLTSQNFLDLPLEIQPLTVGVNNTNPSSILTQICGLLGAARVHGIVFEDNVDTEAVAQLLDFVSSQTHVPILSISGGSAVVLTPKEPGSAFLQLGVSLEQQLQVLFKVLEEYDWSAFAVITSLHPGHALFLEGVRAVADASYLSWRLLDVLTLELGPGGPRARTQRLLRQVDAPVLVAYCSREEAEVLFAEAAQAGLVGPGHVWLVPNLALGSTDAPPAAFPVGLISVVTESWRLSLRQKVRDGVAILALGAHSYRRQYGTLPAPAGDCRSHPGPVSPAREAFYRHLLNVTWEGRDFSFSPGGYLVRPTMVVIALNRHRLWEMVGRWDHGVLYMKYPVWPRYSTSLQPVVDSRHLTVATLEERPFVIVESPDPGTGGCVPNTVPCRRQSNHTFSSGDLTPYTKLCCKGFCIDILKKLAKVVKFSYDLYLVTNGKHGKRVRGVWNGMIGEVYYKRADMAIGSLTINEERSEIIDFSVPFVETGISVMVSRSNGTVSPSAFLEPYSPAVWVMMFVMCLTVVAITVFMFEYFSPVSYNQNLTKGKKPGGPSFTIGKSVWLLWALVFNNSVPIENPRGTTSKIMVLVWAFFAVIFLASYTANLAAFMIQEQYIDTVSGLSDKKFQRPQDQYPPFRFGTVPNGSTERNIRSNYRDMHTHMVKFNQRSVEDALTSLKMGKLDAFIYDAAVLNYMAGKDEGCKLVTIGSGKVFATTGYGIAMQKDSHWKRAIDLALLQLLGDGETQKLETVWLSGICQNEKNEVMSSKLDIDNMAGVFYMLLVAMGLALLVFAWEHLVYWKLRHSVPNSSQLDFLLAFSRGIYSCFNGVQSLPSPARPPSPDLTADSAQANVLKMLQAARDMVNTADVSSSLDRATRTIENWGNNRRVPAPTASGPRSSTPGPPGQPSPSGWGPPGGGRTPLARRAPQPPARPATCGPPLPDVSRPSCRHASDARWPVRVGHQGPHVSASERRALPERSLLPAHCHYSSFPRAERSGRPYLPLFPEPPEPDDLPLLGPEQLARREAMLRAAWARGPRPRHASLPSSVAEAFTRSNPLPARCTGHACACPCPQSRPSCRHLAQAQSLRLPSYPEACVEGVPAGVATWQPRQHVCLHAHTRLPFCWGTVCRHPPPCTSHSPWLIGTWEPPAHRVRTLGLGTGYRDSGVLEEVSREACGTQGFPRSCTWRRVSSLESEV
Method: (§1) Quality of synthesized cRNA was assessed by gel electrophoresis, and quantity was estimated by spectroscopy and gel electrophoresis. Stage V and VI oocytes were surgically removed from the ovaries of large, well-fed and healthy Xenopus laevis anesthetized with 3-amino-benzoic acid ethyl ester (3 gm/l) as previously described. Clusters of isolated oocytes were incubated with 292 U/ml Worthington (Freehold, N.J.) type IV collagenase or 1.3 mg/ml collagenase (Life Technologies, Gaithersburg, MD; 17018-029) for 2 hr in Ca^2+-free solution comprised of (in mM) 115 NaCl, 2.5 KCl, and 10 HEPES, pH 7.5, with slow agitation to remove the follicular cell layer. Oocytes were then washed extensively in the same solution supplemented with 1.8 mM CaCl2 and maintained in Barth's solution comprised of (in mM): 88 NaCl, 1 KCl, 2.4 NaHCO3, 10 HEPES, 0.82 MgSO4, 0.33 Ca(NO3)2, and 0.91 CaCl2 and supplemented with 100 μg/m1 gentamycin, 10 μg/ml streptomycin, and 10 μg/ml penicillin. Oocytes were manually defolliculated and injected within 24 hrs of isolation with 3-5 ng of NR1 subunit cRNA and 7-10 ng of NR2 cRNA subunit in a 50 nl volume, or 5-10 ng of AMPA or kainate receptor cRNAs in a 50 nl volume, and incubated in Barth's solution at 18° C. for 1-7 d. Glass injection pipettes had tip sizes ranging from 10-20 microns, and were backfilled with mineral oil.
(§2) Two electrode voltage-clamp recordings were made 2-7 days post-injection as previously described. Oocytes were placed in a dual-track plexi-glass recording chamber with a single perfusion line that splits in a Y-configuration to perfuse two oocytes. Dual recordings were made at room temperature (23° C.) using two Warner OC725B two-electrode voltage clamp amplifiers, arranged as recommended by the manufacturer. Glass microelectrodes (1-10 Megaohms) were filled with 300 mM KCl (voltage electrode) or 3 M KCl (current electrode). The bath clamps communicated across silver chloride wires placed into each side of the recording chamber, both of which were assumed to be at a reference potential of 0 mV. Oocytes were perfused with a solution comprised of (in mM) 90 NaCl, 1 KCl, 10 HEPES, and 0.5 BaCl2; pH was adjusted by addition of 1-3 M NaOH of HC1 to 7.4. Oocytes were recorded under voltage clamp at −40 mV. […] In some experiments, 10 μM EDTA was obtained by adding a 1:1000 dilution of 10 mM EDTA, in order to chelate contaminant divalent ions such as Zn^2+. […] Concentration effect curves consisting of 4 to 8 concentrations were obtained in this manner. The baseline leak current at −40 mV was measured before and after recording, and the full recording linearly corrected for any change in leak current. […] Each experiment consisted of recordings from 3 to 10 oocytes obtained from a single frog. Results from multiple experiments were pooled, and the average percent responses at antagonist concentrations were fitted by the equation,
(§3) Percent Response=(100−minimum)/(1+([conc]/IC50)nH)+minimum

[2] = target: NR1/NR2D (Rattus norvegicus, UniProt P35439+Q62645); experiment: Two electrode voltage clamp, Xenopus oocytes expressing recombinant NR1/NR2D; assay type: cell-based; conditions: for remaining activity at 100 µM: read-out: 2D percent effect at the maximum tested concentration
Chain of NR1/NR2D (Rattus norvegicus, UniProt P35439+Q62645) (Q62645 28-1323, other chains not shown): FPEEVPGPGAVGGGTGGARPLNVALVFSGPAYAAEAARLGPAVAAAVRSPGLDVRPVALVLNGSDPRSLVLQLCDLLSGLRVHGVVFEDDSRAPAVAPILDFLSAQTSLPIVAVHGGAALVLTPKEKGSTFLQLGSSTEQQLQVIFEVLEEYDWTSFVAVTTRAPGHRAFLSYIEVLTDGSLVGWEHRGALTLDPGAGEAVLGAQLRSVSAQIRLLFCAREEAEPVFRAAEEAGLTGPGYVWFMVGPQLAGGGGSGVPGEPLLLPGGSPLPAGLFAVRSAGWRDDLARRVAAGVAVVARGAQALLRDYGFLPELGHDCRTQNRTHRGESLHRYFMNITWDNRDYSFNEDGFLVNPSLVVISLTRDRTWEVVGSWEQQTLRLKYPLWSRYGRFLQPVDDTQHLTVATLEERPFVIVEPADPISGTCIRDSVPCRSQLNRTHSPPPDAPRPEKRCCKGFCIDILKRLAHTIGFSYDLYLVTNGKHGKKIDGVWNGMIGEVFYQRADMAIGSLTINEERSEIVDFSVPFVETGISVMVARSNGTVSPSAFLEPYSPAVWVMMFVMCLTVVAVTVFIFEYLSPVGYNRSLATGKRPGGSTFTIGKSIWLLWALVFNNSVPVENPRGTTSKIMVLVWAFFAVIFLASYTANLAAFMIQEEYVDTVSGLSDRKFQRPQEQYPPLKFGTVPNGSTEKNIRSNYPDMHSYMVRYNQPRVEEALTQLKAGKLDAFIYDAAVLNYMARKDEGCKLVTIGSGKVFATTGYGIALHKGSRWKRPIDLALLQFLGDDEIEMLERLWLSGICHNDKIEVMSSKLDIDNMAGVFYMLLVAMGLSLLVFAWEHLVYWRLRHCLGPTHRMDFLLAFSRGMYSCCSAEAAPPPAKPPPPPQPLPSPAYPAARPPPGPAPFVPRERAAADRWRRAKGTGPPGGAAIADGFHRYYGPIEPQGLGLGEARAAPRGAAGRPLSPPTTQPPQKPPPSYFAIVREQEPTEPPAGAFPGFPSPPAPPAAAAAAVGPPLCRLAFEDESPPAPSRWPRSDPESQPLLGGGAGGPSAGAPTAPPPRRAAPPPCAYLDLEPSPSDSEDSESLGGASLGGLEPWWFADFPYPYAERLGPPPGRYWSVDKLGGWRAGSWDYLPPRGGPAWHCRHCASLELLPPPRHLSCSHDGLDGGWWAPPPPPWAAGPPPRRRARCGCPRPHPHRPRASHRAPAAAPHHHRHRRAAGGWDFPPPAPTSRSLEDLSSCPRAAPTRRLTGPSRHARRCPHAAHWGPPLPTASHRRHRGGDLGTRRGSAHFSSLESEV
Method: as §1, §2, §3

[3] = target: NR1/NR2A (Rattus norvegicus, UniProt P35439+Q00959); experiment: Two electrode voltage clamp, Xenopus oocytes expressing recombinant NR1/NR2A; assay type: cell-based
Method: as §1, §2, §3

[4] = target: NR1/NR2B (Rattus norvegicus, UniProt P35439+Q00960); experiment: Two electrode voltage clamp, Xenopus oocytes expressing recombinant NR1/NR2B; assay type: cell-based
Chain of NR1/NR2B (Q00960 27-1482, other chains not shown): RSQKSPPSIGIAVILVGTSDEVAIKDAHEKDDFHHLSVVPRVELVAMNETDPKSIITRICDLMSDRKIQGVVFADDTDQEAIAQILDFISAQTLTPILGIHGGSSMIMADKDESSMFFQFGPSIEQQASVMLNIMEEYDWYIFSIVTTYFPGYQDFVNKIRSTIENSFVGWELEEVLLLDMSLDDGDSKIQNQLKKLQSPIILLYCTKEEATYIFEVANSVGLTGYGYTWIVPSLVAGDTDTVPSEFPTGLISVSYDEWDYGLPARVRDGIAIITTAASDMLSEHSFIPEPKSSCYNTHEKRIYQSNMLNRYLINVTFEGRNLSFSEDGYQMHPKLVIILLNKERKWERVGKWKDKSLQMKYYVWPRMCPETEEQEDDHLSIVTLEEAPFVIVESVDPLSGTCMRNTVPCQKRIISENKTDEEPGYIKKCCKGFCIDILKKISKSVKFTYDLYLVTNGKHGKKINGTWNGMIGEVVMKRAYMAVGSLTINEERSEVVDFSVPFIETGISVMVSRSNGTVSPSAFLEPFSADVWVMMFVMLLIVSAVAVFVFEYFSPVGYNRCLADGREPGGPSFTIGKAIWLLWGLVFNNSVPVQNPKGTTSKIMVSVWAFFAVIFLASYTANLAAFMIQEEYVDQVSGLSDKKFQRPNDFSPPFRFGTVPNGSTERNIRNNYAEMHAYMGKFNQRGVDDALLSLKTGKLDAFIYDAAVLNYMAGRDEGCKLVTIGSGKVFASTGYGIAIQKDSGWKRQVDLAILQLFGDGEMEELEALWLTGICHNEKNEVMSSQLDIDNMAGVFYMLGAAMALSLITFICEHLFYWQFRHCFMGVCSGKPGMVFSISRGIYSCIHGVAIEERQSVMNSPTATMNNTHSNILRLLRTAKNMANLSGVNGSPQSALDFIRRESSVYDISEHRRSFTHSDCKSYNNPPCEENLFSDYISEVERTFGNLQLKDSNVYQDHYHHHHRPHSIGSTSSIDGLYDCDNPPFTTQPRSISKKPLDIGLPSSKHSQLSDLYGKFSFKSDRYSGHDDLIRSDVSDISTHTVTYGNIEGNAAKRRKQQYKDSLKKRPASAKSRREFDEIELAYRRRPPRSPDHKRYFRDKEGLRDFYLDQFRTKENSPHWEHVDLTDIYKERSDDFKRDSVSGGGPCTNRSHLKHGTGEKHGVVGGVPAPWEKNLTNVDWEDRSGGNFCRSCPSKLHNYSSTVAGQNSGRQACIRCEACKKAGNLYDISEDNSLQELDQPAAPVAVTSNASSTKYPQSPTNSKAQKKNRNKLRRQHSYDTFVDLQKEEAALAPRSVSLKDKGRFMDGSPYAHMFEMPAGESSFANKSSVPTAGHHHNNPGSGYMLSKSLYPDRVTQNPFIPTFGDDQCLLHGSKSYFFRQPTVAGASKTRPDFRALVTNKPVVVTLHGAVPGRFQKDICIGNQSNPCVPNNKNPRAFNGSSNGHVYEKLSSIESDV
Method: as §1, §2, §3

[5] = target: T1, NR1/NR2D (Rattus norvegicus, UniProt Q62645); experiment: Ca2+ fluorescence screening assay in NR1/NR2D expressing BHK cells (96 well); assay type: cell-based; design: expressed in transfected cells; host or cells: BHK-21 cells; NR1 induced by doxycyclin (Tet-On), NR2D constitutive; conditions: 10 μM test compound, 100 μM glutamate/1 mM glycine
T1 sequence (Q62645 28-1323, other chains not shown): as the sequence (Q62645 28-1323, other chains not shown) above

[6] = target: T1, NR1/NR2D; experiment: Two electrode voltage clamp, Xenopus oocytes expressing recombinant NR1/NR2D; assay type: cell-based
Method: as §1, §2, §3

[7] = target: GluR1 (Rattus norvegicus, UniProt P19490); experiment: Two electrode voltage clamp, Xenopus oocytes expressing GluR1; assay type: cell-based; conditions: read-out: GluR1 percent effect at the maximum tested concentration
Chain of GluR1 (P19490 19-907): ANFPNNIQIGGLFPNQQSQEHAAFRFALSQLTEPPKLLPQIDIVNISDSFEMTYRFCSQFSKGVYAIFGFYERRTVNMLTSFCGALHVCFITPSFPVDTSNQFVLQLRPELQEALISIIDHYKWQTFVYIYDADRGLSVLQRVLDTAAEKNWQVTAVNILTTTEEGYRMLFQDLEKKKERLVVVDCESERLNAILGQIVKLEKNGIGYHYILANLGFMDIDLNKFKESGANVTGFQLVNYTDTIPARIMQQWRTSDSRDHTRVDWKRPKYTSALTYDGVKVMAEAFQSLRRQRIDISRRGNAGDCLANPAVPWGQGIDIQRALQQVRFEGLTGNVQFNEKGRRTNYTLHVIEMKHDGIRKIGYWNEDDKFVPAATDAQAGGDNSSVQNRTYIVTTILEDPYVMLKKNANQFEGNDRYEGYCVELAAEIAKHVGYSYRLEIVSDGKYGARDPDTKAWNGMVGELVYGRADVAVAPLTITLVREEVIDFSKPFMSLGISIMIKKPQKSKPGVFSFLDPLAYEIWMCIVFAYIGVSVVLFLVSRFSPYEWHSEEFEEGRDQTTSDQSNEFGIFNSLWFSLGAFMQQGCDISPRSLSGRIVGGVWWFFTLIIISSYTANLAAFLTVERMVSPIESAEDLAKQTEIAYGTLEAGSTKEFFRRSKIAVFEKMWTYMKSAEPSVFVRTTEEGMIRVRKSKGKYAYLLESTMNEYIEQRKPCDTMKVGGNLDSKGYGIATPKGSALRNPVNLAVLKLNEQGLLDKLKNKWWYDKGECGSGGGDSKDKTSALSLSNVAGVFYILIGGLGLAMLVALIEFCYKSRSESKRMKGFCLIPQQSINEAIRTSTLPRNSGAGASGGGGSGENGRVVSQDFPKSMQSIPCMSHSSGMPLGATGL
Method: as §1, §2, §3

[8] = target: NR2D (Homo sapiens, UniProt O15399+Q05586); conditions: estimated Ki; cited from earlier work
[9] = read-out: 2A percent effect at the maximum tested concentration
[10] = read-out: 2B percent effect at the maximum tested concentration
[11] = at 100 μM, read-out: 2A percent effect at the maximum tested concentration
[12] = at 100 μM, read-out: 2B percent effect at the maximum tested concentration
[13] = logistic fit, minimum forced to 0, read-out: 2C IC50
[14] = logistic fit, minimum forced to 0, read-out: 2D IC50

CC(C)N(C(=O)Oc1ccc(C(=O)Nc2ccc3[nH]ccc3c2)cc1)C(C)C [1063-16]
IC50 [1]: 30 µM | IC50 [2]: 44 µM | remaining activity at 100 µM [3, 9]: 100% | remaining activity at 100 µM [4, 10]: 81%

Cn1c(=O)oc2ccc(C(=O)Nc3cccc4ccccc34)cc21 [1063-29]
remaining activity at 100 µM ([1]; at 100 μM): 80% | remaining activity at 100 µM ([2]; at 100 μM): 75% | remaining activity at 100 µM [3, 11]: 92% | remaining activity at 100 µM [4, 12]: 81%

CCN(CC)C(=S)Oc1ccc(C(=O)Nc2ccc3ccccc3c2)cc1 [1063-0]
IC50 [1, 13]: 243 µM | IC50 [2, 14]: 91 µM | remaining activity at 30 µM ([3]; at 30 μM, read-out: 2A percent effect at the maximum tested concentration): 101% | remaining activity at 30 µM ([4]; at 30 μM, read-out: 2B percent effect at the maximum tested concentration): 99%

CCN(CC)C(=O)Oc1ccc(C(=O)Nc2cc(C)cc(C)c2)cc1 [1063-17]
IC50 [1]: 18 µM | IC50 [2]: 8 µM | remaining activity at 100 µM [3, 9]: 79% | IC50 [4]: 89 µM

CCN(C)C(=O)Oc1ccc(C(=O)Nc2cccc3cc[nH]c23)cc1 [1063-30]
IC50 [1]: 72 µM | IC50 [2]: 56 µM | remaining activity at 100 µM [3, 9]: 89% | remaining activity at 100 µM [4, 10]: 71%

(+)MK-801
identification in test screen of NR1/NR2D expressing BHK cells [5]: successfully identified

CCN(CC)C(=O)Oc1ccc(C(=O)Nc2cccc3[nH]ccc23)cc1 [1063-26]
IC50 [1]: 8 µM | IC50 [2]: 6 µM | remaining activity at 100 µM [3, 9]: 88% | IC50 [4]: 560 µM

O=c1[nH]c2ccc(Cl)cc2c(-c2ccccc2)c1C1=NNC(c2ccc(Br)cc2)C1 (centres unmarked) [compound 1249]
2D percent response at the maximum tested concentration [6]: 79% at 30 μM

CCN(CC)C(=O)Oc1ccc(C(=O)Nc2cc(C(=O)OC)cc3c(C)c[nH]c23)cc1 [1063-35]
remaining activity at 100 µM [1]: 77% | remaining activity at 100 µM [2]: 80% | IC50 [3]: 177 µM | IC50 [4]: 238 µM | remaining activity at 100 µM [7]: 97%

O=C(O)CCC(=O)N1N=C(c2c(-c3ccccc3)c3cc(Br)ccc3[nH]c2=O)CC1c1ccccc1Cl (centres unmarked) [compound 1209]
IC50 [1, 13]: 22 µM | IC50 [2, 14]: 13 µM | IC50 ([3]; logistic fit, minimum forced to 0, read-out: 2A IC50): 79 µM | IC50 ([4]; logistic fit, minimum forced to 0, read-out: 2B IC50): 35 µM

CCC(CC)C(=O)Oc1ccc(C(=O)Nc2cccc3ccccc23)cc1 [1063-9]
remaining activity at 100 µM ([1]; at 100 μM): 94% | remaining activity at 100 µM ([2]; at 100 μM): 86% | remaining activity at 100 µM [3, 11]: 111% | remaining activity at 100 µM [4, 12]: 98%

CCN(CC)C(=S)Oc1ccc(C(=O)Nc2ccc(Cl)c3ccccc23)cc1 [1063-12]
IC50 [1, 13]: 25 µM | IC50 [2, 14]: 100 µM | remaining activity at 100 µM [3, 11]: 92% | remaining activity at 100 µM [4, 12]: 80%

CCN(CC)C(=S)Oc1ccc(C(=O)Nc2cccc3cc[nH]c23)cc1 [1063-21]
IC50 [1, 13]: 15 µM | IC50 [2, 14]: 4 µM | remaining activity at 100 µM [3, 11]: 94% | remaining activity at 100 µM [4, 12]: 78% | remaining activity at 100 µM ([7]; at 100 μM): 102%

O=C(O)C1NCCN(C(=O)c2ccc3c(ccc4ccccc43)c2)C1C(=O)O (centres unmarked) [PPDA, 1-(phenanthrene-2-carbonyl)piperazin-2,3, dicarboxylic acid]
selectivity for NR2D over NR2A [8]: ~5 fold

CCN(CC)C(=O)Oc1ccccc1C(=O)Nc1cccc2ccccc12 [1063-25]
remaining activity at 100 µM ([1]; at 100 μM): 83% | remaining activity at 100 µM ([2]; at 100 μM): 91% | remaining activity at 100 µM [3, 11]: 88% | remaining activity at 100 µM [4, 12]: 88%

C=CCN(CC=C)C(=O)Oc1ccc(C(=O)Nc2cccc3ccccc23)cc1 [1063-5]
IC50 [1]: 42 µM | IC50 [2]: 28 µM | remaining activity at 100 µM [3, 9]: 104% | IC50 [4]: 719 µM | remaining activity at 100 µM [7]: 103%

COc1ccc(C2CC(c3c(-c4ccccc4)c4cc(Br)ccc4[nH]c3=O)=NN2C(=O)CCC(=O)O)cc1 (centres unmarked) [compound 1128]
2D percent response at the maximum tested concentration ([6]; at 100 μM): 90% at 100 μM
